Measured values reported in PubChem BioAssay (NCI).
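Method: 48-hour compound exposure of cells in 96-well plates, five concentrations, linear interpolation of endpoints. GI50 is the concentration that inhibits growth by half. TGI is the concentration that stops growth completely.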

Assays:
Test in all cases: NCI-60 cell line screen, 48 h
[1] = system: EKVX NSCLC
[2] = system: HOP-92 NSCLC
[3] = system: HT29 colon
[4] = system: IGROV1 ovarian
[5] = system: MDA-MB-435
[6] = system: NCI-H226 lung
[7] = system: NCI-H23 lung
[8] = system: NCI/ADR-RES ovarian
[9] = system: M14 melanoma
[10] = system: T-47D breast

Structure (SMILES) | TGI [1] [µM] | TGI [2] [µM] | TGI [3] [µM] | TGI [4] [µM] | TGI [5] [µM] | TGI [6] [µM] | TGI [7] [µM] | TGI [8] [µM] | TGI [9] [µM] | TGI [10] [µM] | GI50 [1] [µM] | GI50 [3] [µM] | GI50 [4] [µM] | GI50 [5] [µM] | GI50 [6] [µM] | GI50 [7] [µM] | GI50 [8] [µM] | GI50 [10] [µM] | GI50 [2] [µM] | GI50 [9] [µM]
C=C1CC(CNc2cc(Cl)nc(N)n2)C1 | > 100 | > 100 | > 100 | > 100 | > 100 | > 100 | > 100 | > 100 |  |  |  |  |  |  |  |  |  |  |  | 
CC(=O)NC1CCC(NC(=O)OC(C)(C)C)C(NC(=O)OC(C)(C)C)C1 (stereo not drawn) |  | > 100 | > 100 | > 100 | > 100 | > 100 | > 100 | > 100 | > 100 | > 100 |  |  |  |  |  |  |  |  |  | 
Cc1ccc(C2=Nc3ccccc3NC(=O)C2)cc1 | > 100 | > 100 | > 100 | > 100 |  | > 100 | > 100 |  | > 100 |  |  |  |  |  |  |  |  |  |  | 
COC(=O)CC1(O)C(C=C(C)C)C(C(=O)OC)C(=O)C(C(=O)OC)C1C(=O)OC (stereo not drawn) | > 100 | > 100 | > 100 | > 100 | > 100 | > 100 | > 100 | > 100 | > 100 |  |  |  |  |  |  |  |  |  |  | 
CC1(C)N=C(N)N=C(N)N1c1ccc(CCCCc2ccc(Cl)cc2Cl)cc1 | 45.1 | 18 | 13 | 10 | 13.9 |  | 11.9 | > 100 | 14 | 23.9 |  |  |  |  |  |  |  |  |  | 
CC1CSc2nc3[nH]c(=S)[nH]c3c(=O)n2C1 (stereo not drawn) | > 100 |  |  | > 100 | > 100 | > 100 | > 100 | > 100 |  | > 100 |  |  |  |  |  |  |  |  |  | 
C[C@@H]1CCN(C(=O)CC#N)C[C@@H]1N(C)c1ncnc2[nH]ccc12 | > 100 |  | > 100 | > 100 | > 100 | > 100 | > 100 | > 100 |  | > 100 | 17.6 | > 100 | 65.8 | > 100 | 20.9 | > 100 | > 100 | > 100 |  | 
CCN(CC)C(=S)N/N=C(\C)c1ccccc1O | > 100 |  | 48 | > 100 |  | 56.8 | > 100 |  | 51.3 |  |  |  |  |  |  |  |  |  |  | 
COc1ccccc1/C=C1/Sc2scc(CC(=O)Nc3ccccc3)[n+]2C1=O | > 100 | 52.3 | > 100 | > 100 | > 100 | 69.7 | > 100 | 59.9 | > 100 |  |  |  |  |  |  |  |  |  |  | 
COc1cc2cnc3c(c2cc1OC)Cc1cc2c(cc1-3)OCO2 | 55.9 | > 100 | 73.4 | > 62.9 |  | > 95.8 | 24.6 | > 81.5 | > 100 | > 100 | 0.0279 | < 0.01 | 0.014 |  | 41.1 |  | < 0.01 | 1.71 | > 93.6 | < 0.0113
CCCN(CCC)C(=O)Cc1c2n(c3ccccc13)Cc1ccccc1-2 | > 100 | 57.7 | > 100 |  |  | > 100 | > 100 |  | > 100 |  |  |  |  |  |  |  |  |  |  | 
CNS(=O)(=O)NN(C)S(=O)(=O)c1ccc(Br)cc1 | > 100 |  | > 100 | > 100 |  | > 100 | > 100 |  | > 100 |  |  |  |  |  |  |  |  |  |  | 
N#Cc1nc(Cc2ccccc2)oc1N | > 100 |  | > 100 | > 100 | > 100 | > 100 | > 100 |  | > 100 | > 100 |  |  |  |  |  |  |  |  |  | 
Cc1ccc(NNc2cc(=O)[nH]c(=O)[nH]2)cc1Cl |  | 27.9 | 28.7 | 27.6 |  | > 100 | 31.1 | > 100 | 26.9 | 25.1 |  |  |  |  |  |  |  |  |  | 
Cc1[nH]n(-c2nc(O)c(C)c(=O)[nH]2)c(=O)c1CCO | > 100 | > 100 | > 100 | > 100 | > 100 | > 100 | > 100 |  | > 100 | > 100 |  |  |  |  |  |  |  |  |  | 
O=C(CN=C(CN(c1ccccc1)c1ccccc1)Oc1c([N+](=O)[O-])cc([N+](=O)[O-])cc1[N+](=O)[O-])N1CCNCC1 | > 100 | > 100 | > 100 | > 100 | > 100 | > 100 | > 100 |  | > 100 | > 100 |  |  |  |  |  |  |  |  |  | 
Cn1c2ccccc2n2c3ccccc3c(=S)c(C#N)c12 | > 100 |  | > 100 | > 100 | > 100 | > 100 | > 100 | > 100 | > 100 |  |  |  |  |  |  |  |  |  |  | 
CC(=O)/C=C/c1c[nH]c(=O)[nH]c1=O | 570 | 102 | 847 | 861 |  | 565 | 745 | 781 |  |  |  |  |  |  |  |  |  |  |  | 
